Results published in patent US20240409864A1, “Apparatus and Methods for Generating and Analyzing Three-Dimensional Cellular Materials” (Agilent Technologies, Inc., priority 2021, published 2024).

How the values were obtained:
Panc1 spheroids [1] = assay: Mitochondrial stress test, oxygen consumption rate (Seahorse XF); assay type: cell-based; settings: Panc1 spheroids assayed after 8 days; polished plate, 20 microliters Lipidure coating; FIG. 15
Source text: (§3) A common test performed on the system described above is a mitochondrial stress test. In this assay a series of injections are delivered through the drug ports of the cartridge in order to measure the response of the biological sample to various compounds (oligomycin, FCCP, rotenone and antimycin). These compounds are preloaded into a drug reservoir (port) on the XF cartridge prior to execution of the assay. When the cartridge is inserted into the instrument it is coupled to a manifold which when activated by a solenoid valve, provides pneumatic pressure to the head space of the reservoir forcing the compound through a small orifice and into the well containing the biological sample.
First, Panc1/HepG2 cells were grown in the well plates generally contemplated by the present disclosure but with only a single concentric lip as well as commercially available plates, followed by the transfer of the spheroids cultured in the commercially available plates to the plates of the present disclosure. The experimental protocol was as follows: • 1. Add 50 ul of Lipidure solution (prepared in ETOH) to the plates. Leave overnight at 37 degrees C. or at 50 degrees C. for 1 hour for the ETOH to evaporate. • 2. Trypsinize the HepG2 with multiple washes of Mg—Ca free PBS to make single cells. Leave in incubator at 37 deg C. for 2-3 mins. • 3. […]

HepG2 spheroids = assay: as above; assay type: cell-based; settings: HepG2 spheroids assayed after 6 days, 50 microliters Lipidure coating
Source text: as §3
The experimental protocol was as follows: • 1. Add 50 ul of Lipidure solution (prepared in ETOH) to the plates. Leave overnight at 37 degrees C. or at 50 degrees C. for 1 hour for the ETOH to evaporate. • 2. Trypsinize the HepG2 with multiple washes of Mg—Ca free PBS to make single cells. Leave in incubator at 37 deg C. for 2-3 mins. • 3. Transfer cells to centrifugal tube and add PBS to fill half the tube then count cells based on density prior to centrifugation. • 4. Centrifuge the cell suspension and resuspend the pellet in fresh medium. • 5. Add 10K cells per well with fresh growth medium (180 ul per well) • 6. Centrifuge, if necessary, at 1000 rpm for 2-3 minutes with low deceleration. Centrifugation helps the cells to come together, if needed. • 7. When desirable tight clusters are formed (3-5 days), proceed with the Seahorse XF assay. • 8. For HepG2, DMEM PH 7.4 media from Seahorse supplemented with glutamine, sodium pyruvate and glucose were used (same concentration as the growth medium). • 9. With a multiple channel, pull out about 150 microliters of spent medium and add 180 microliters of fresh Seahorse medium slowly sliding through the walls. • 10. Follow with 2-3 washes to dilute out the FBS from the wells. • 11. After every wash check if the spheroid is still in the center. The white spot of the spheroid is easily seen on dark lab counter tops. • 12. Follow known protocol for traditional oxygen consumption rate (OCR) assay based on the mitochondrial stress test described in detail above. • 13. Take before and after images to verify the spheroids remain centered throughout. • 14.
Further, and referring to FIGS. 16 and 17, the oxygen consumption rate was performed on wells 1-6 using the mitochondrial stress test described above using HepG2 spheroids generated and assayed after 6 days in a plate with the geometric configuration of the present disclosure.

C2C12 spheroids = C2C12 spheroids about 180 and 140 micrometers, final concentration 1 μM, BioFLOAT coating, no centrifugation
Source text: (§1) Panc1, HepG2, and C2C12 cell lines were used to form spheroids in an apparatus with wells having the geometry shown at least in FIGS. 2, 3, and 4 of the present disclosure. The wells were coated with either Lipidure® or BioFLOAT® ultra low adhesion coatings according to manufacturer protocols, after which the cell lines were introduced to the well plates and spheroids were formed according to the following protocol: • Apply ULA coatings according to manufacturer's protocols • Use trypsin to detach cells of interest (C2C12, Panc1, or HepG2) and create a single cell suspension • Deactivate trypsin via addition of complete culture media • Perform a cell count • Centrifuge the cell suspension at 250 G for 5 minutes and resuspend the pellet in fresh medium at the required density. • Add 300-1500 cells per well with fresh growth medium to a final volume of 200 ul per well • Centrifuge, if necessary, at 250 G for 5 minutes with low deceleration. Centrifugation helps the cells to come together, if needed. • When desirable tight clusters are formed (typically 3-5 days), proceed with the Seahorse XF assay. • DMEM PH 7.4 media from Seahorse supplemented with glutamine, sodium pyruvate and glucose were used (same concentration as the growth medium). • With a multiple channel, pull out about 100 microliters of spent medium and add 100 microliters of fresh Seahorse medium slowly sliding through the walls. • Follow with 3-5 washes to dilute out the old media from the wells. • Perform desired Seahorse assay-Basal, Mito Stress Test, FCCP addition, or others.
(§2) Next, C2C12 and Panc1 cells were seeded in BioFLOAT® coated spheroid plates as contemplated by the present disclosure at two different concentrations. The cells were allowed to settle without centrifugation and form spheroids for two days. […] The largest cross-sectional diameter was measured to characterize the size of the spheroids.

Panc1 spheroids [2] = settings: Panc1 spheroids about 325 and 250 micrometers, final concentration 1 μM, BioFLOAT coating, no centrifugation
Source text: as §1, §2

Molecule | oxygen consumption rate response (Panc1 spheroids [1]) | oxygen consumption rate response (HepG2 spheroids; polished plate, FIG. 19) | oxygen consumption rate response (HepG2 spheroids; unpolished plate, FIG. 17) | oxygen consumption rate (OCR) after injection (C2C12 spheroids; FIG. 44) | extra cellular acidification rate (ECAR) after injection (C2C12 spheroids; FIG. 45) | oxygen consumption rate (OCR) after injection (Panc1 spheroids [2]; FIG. 42) | extra cellular acidification rate (ECAR) after injection (Panc1 spheroids [2]; FIG. 43)
CC[C@H]1/C=C/C=C/C[C@@H](C)[C@H](O)[C@@](C)(O)C(=O)[C@@H](C)[C@H](O)[C@@H](C)C(=O)[C@@H](C)[C@H](O)[C@@H](C)/C=C/C(=O)O[C@@H]2[C@H](C)[C@H](CC1)O[C@]1(CC[C@H](C)[C@H](C[C@@H](C)O)O1)[C@H]2C [oligomycin] | did not show the dip on oxygen consumption | good response | good response |  |  |  | 
FCCP | good response | good response | good response | increased | increased | increased | increased
